Target: T1, YFP—C-TDP-43 aggregates (Homo sapiens, UniProt Q13148)
T1 construct: IW33 [Psnb-l:C-TDP-43219-414-YFP (iwIs22)]; expressed in transfected cells; host or cells: transgenic C. elegans strain IW33 (pan-neuronal snb-1 promoter)
Assay: YFP-C-TDP-43 aggregates in transgenic C. elegans (confocal imaging)
Assay type: in vivo
Settings: 5 μM I-1b; compared to DMSO control or MG132-treated group
Procedure: The YFP—C-TDP-43 transgenic strains of C. elegans generated in this study were IW33 [Psnb-l:C-TDP-43219-414-YFP (iwIs22)]. The strains of nematodes were maintained with standard procedure and grown at 20° C. as previously described (Zhang, T. et al. Hum. Mol. Genet. 2011, 20 (10), 1952). For all assays, the transgenic young two-day (80 hours) adults were used. For larvae synchronization, the eggs were isolated by lysing gravid adult worms with freshly prepared bleaching solution (0.5 mL 5 M NaOH with 1 mL bleach) and incubated in S buffer (recipe) for overnight. For drug treatments, compound I-1b and/or DMSO were solely or along with MG132 applied to fresh NGM plates prior to installing the synchronized C. elegans. The body bends of the corresponding treatment in a duration of 30 seconds of the various strains were documented through SMZ800N stereomicroscope equipped with a CCD camera (Nikon). A body bend was counted as the head of C. elegans travels across the mid-body in 1×PBS buffer. Then, the bending videos of C. elegans were analyzed by ImageJ with the wrMTrck plugin (Nussbaum-Krammer, C. I. et al. J. Vis. Exp. 2015, (95), 52321). […]
As YFP—C-TDP-43 readily forms cytosolic aggregates in nervous system, the YFP—C-TDP-43 aggregates both in the neuron processes and neuron bodies of the ventral cord were monitored. […]

T1 sequence (Q13148 219-414 limits assumed): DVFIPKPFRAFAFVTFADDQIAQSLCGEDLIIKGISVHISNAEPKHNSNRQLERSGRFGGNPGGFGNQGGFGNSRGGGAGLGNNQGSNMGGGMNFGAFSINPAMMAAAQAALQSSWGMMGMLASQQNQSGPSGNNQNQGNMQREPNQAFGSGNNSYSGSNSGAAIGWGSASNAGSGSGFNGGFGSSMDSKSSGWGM

CN(C)c1ccc(-c2nc3ccc(OCCOCCOCCNc4cccc5c4C(=O)N(C4CCC(=O)NC4=O)C5=O)cc3s2)cc1 (stereo not shown) [I-1b, 4-((2-(2-(2-((2-(4-(dimethylamino)phenyl)benzo[d]thiazol-6-yl)oxy)ethoxy)ethoxy)ethyl)amino)-2-(2,6-dioxopiperidin-3-yl)isoindoline-1,3-dione]
YFP—C-TDP-43 aggregates in neuron processes and neuron bodies of the ventral cord: fewer aggregates with reduced fluorescence intensity
